Measured values published in publication PMC10353061 (ACS Pharmacology & Translational Science, 2023).

Assays:
HCT116 colon cancer cell = conditions: cited from earlier work
[1] = test system: Wnt/β-catenin signaling pathway; test: Topflash/Fopflash luciferase report assay in SW480 cells; assay type: cell-based; conditions: 30 μM
Description: (§1) We synthesized derivatives 5–10 bearing 5-membered and 6-membered heterocyclic rings at the position 3′ or 4′ of the B phenyl ring. […] SW480 cells show higher Wnt activation compared to HCT116 cells.[28] […] In SW480 cells, compounds 5–10 were in the 1.75%(10)–7.32%(7) range of residual luciferase activity, except 6(28.46%), compared to 3(21.61%); in HCT116 cells, compounds 5–10 were in the 0.37%(7)–5.88%(5) range, compared to 3 (18.75%) (Table 1 and Figure 5).
(§2) Figure 5 Residual luciferase activity (%) by compounds 5–10 and reference compound 3 in SW480 cells (left panel) and HCT116 cells (right panel). Data are represented as the mean ± SD of three independent experiments, each performed in triplicate.
(§3) Briefly, the Topflash plasmid (Beyotime, Zhejiang, China) contains 7 TCF/LEF binding sites, while the Fopflash plasmid (Beyotime, Zhejiang, China) contains 6 mutated TCF/LEF binding sites, which are located in the upstream of the luciferase reporter. SW480 and HCT116 cell lines were cultured in 90% DMEM (HyClone, #SH30243.01) plus 10% fetal bovine serum (Gibco, #10270) and plasmocin (mpp-39-03, InvivoGen), respectively. The Topflash/Fopflash vector and plasmid pTK-renilla together were co-transfected to the cells. […] The Dual-Glo luciferase assay kit (Promega, #E1910) was used to measure the luminescence intensity (Figure 2).

HCC1937 cells = test: Cell proliferation by live-cell imaging (IncuCyte), HCC1937 TNBC cells; assay type: cell-based; conditions: 40 μM, 72 h
Experimental: (§4) As TNBC is a highly heterogeneous subgroup, including breast cancers with different molecular and phenotypic traits,[37] effects of compounds 5–10 on cell proliferation were also tested in additional TNBC cell lines, i.e., HCC1806 and HCC1937. As inhibitors of HCC1806 TNBC cells, compounds 5–10 were evaluated in parallel with compounds 3, ICG-001, and iCRT3 (Figures 10 and S12–S19, Supporting Information); as inhibitors of the HCC1937 TNBC cells, 5–10 were compared with 3 and iCRT3 (Figures 10, S20, and S21). Effects on cell proliferation were evaluated as above for the MDA-MB-231 TNBC cells at the latest time point of observation of 72 h.
(§5) Figure 10 Inhibition of MDA-MB-231, HCC1806, and HCC1937 TNBC cell growth by compounds 5–10 and reference compounds 3, […], and iCRT3 at 40 μM. Cell growth inhibition was quantified using the IncuCyte cell-by-cell analysis software, by comparison with the growth of DMSO-treated cells at 72 h, set at 100% (mean ± SD, n = 3, one-way ANOVA, **p ≤ 0.01, ****p ≤ 0.0001).
(§6) Cell proliferation of breast cancer cell lines upon continuous treatment with select compounds was evaluated by the real-time quantitative live-cell imaging system. MDA-MB-231 (1500 cells/well), HCC1806 (2000 cells/well), and HCC1937 (3000 cells/well) were seeded in 96-well plates, treated with increasing doses of selected compounds and images (5 images/well) were acquired every 8 h for 3 days at 10× magnification in an IncuCyte SX5 live-content imaging system (Essen Bioscience) at 37 °C with 5% CO2. Images were analyzed using IncuCyte cell-by-cell analysis software to detect and quantify live cells (phase-contrast). The number of cells at each time point was quantified using IncuCyte cell-by-cell analysis software, and cell growth was evaluated as the normalized ratio between counted cells at each time point normalized to those counted at time 0. Graph drawing and statistical analyses were performed in GraphPad Prism according to the statistical tests described in the figure legends.

[2] = test system: Wnt/β-catenin signaling pathway; test: Topflash/Fopflash luciferase report assay in HCT116 cells; assay type: cell-based, human; conditions: 30 μM
Description: as §1, §2, §3

HCC1806 cells = test: Cell proliferation by live-cell imaging (IncuCyte), HCC1806 TNBC cells; assay type: cell-based; conditions: 40 μM, 72 h
Experimental: as §4, §5, §6

MDA-MB-231 cells = test: Cell proliferation by live-cell imaging (IncuCyte), MDA-MB-231 TNBC cells; assay type: cell-based; conditions: for effect on MDA-MB-231 cell proliferation: 40 μM, 48 and 72 h
Description: TNBC represents approximately 10–15% of all breast cancers and is the most aggressive subtype of breast cancer. Patients with TNBC have a poor outcome compared to the other subtypes of breast cancer. In the breast cancer tissue, β-catenin is overexpressed compared to the normal tissue. The overexpression of β-catenin is associated with TNBC and lymph node metastasis. […] There is a quest for the development of new therapies to treat TNBC. […] Effects on cell proliferation of MDA-MB-231 TNBC cells were evaluated by live-time cell imaging using the Incucyte S5 system.
as §5, §6

SW620 cells = test: Inhibition of SW620 cells; assay type: cell-based; conditions: Homo sapiens, SW-620, in the combination 9 at constant 0.25 μM
[3] = test system: β-catenin/Tcf-4 interaction; test: Co-immunoprecipitation of β-catenin and Myc-tagged Tcf-4 in HCT116 cells; assay type: cell-based, human; conditions: HCT116 transfected with Myc-tagged Tcf-4, LiCl 50 mM, 50 μM, 24 h
Experimental: Toward this end, we performed a co-immunoprecipitation study in HCT116 cells transfected with Myc-tagged Tcf-4, treated with the two compounds, and immunoprecipitated with Myc antisera.
HCT116 cells were transiently transfected with the Myc-tagged Tcf-4 plasmid and treated with LiCl (50 mM) and 9 (50 μM) or 10 (50 μM) for 24 h. Lysates were immunoprecipitated using Myc-agarose beads and western blot analysis was performed. […] Myc-agarose beads saturated with the Myc-blocking peptide before immunoprecipitation were used as a negative control.
Co-immunoprecipitation assays were performed as previously described.[16],[60] Briefly, 2 × 10^4/cm^2 HCT116 cells were seeded in a 100 mm dish and incubated overnight at 37 °C. Cells were transfected with pcDNA/Myc Tcf-4 (Addgene plasmid #16512; http://n2t.net/addgene:16512; RRID:Addgene_16512)[29] and, after overnight incubation, were starved for 8 h in a medium containing Opti-MEM (#31985070, Thermo Fisher Scientific), FBS 0.5%, pen/strep 1%, NaPyr 1%, NeAA 1%, and then co-treated with 50 mM LiCl and DMSO or 50 μM compound 9 or 50 μM compound […] for 24 h. Cells were collected at the end of the treatments and lysed in a buffer containing 0.5% Triton X-100, 0.5 mM EDTA, and 1 mM DTT. […] Chemioluminescence was detected using WesternBright ECL (#K-12045-D50, Advansta), according to the manufacturer’s protocol.

β-catenin = test: Wnt reporter assay (TOP/FOP luciferase) in LiCl-treated HCT116 cells; assay type: cell-based; conditions: Homo sapiens, HCT-116, read-out: IC50, inhibition of β-catenin (luciferase reporter), LiCl 50 mM, 24 h
Experimental: Compounds 9 and 10 were assayed at increasing 10 and 100 nM and 1 μM concentrations in HCT116 cells transfected with luciferase-based vectors and treated with LiCl (50 mM). TOP TK is a well-established Wnt reporter vector containing eight sequences of Tcf/Lef binding site upstream of the timidine kinase (TK) minimal promoter, driving the expression of firefly luciferase.
Figure 6 HCT116 cells were transfected with luciferase-based vectors and treated with LiCl (50 mM) together with increasing concentrations of compound 9 or 10. Cells were harvested 24 h post-treatment and assayed for luciferase activity. Inhibitions were calculated as the luciferase/renilla ratio of the treated samples vs. the luciferase/renilla ratio of the untreated (control) samples. Data are represented as the mean ± SD of three independent experiments, each performed in triplicate. **p < 0.01, ***p < 0.001, n.s = not significant, as determined by analysis of variance (ANOVA).
Luciferase assays were performed as previously described.[58],[59] Briefly, HCT116 cells were transfected with Topflash reporter (M50 Super 8x TOPFlash, containing 8 repeats of TCF/LEF binding sites) or Fopflash reporter (M51 Super 8x FOPFlash, containing the mutated TCF/LEF binding sites) plasmids using the Dreamfect Gold Transfection Reagent (#DG80500, OZ Biosciences). […]

Fgf20 and Sal4 = test: Wnt-target gene mRNA levels (qPCR) in LiCl-treated HCT116 cells; assay type: cell-based, human; conditions: HCT116, LiCl 50 mM, 24 h, 10 μM
Experimental: (§7) To this end, HCT116 cells were treated for 24 h with 50 mM LiCl and increasing concentrations (10–50–100 μM) of the two compounds.
HCT116 was treated with LiCl (50 mM) and 10 μM compound 9 or 10 for 24 h. Fgf20, Sall4 (Wnt-target genes) mRNA levels were measured by qPCR and normalized to the expression of β-actin mRNA. Results are expressed as fold change relative to the control sample and represent the mean ± SD of three independent experiments, each performed in triplicate. *p < 0.05, **p < 0.01, ***p < 0.001 as determined by ANOVA.

Myc = Myc and β-catenin expression (western blot, qPCR) in LiCl-treated HCT116 cells; assay type: cell-based, human; conditions: HCT116, LiCl 50 mM, 24 h
Experimental: as §7
Figure 7 Top panels. […] Vinculin was used as a loading control. […] Bottom panels. c-Myc mRNA levels were measured by qPCR and normalized to the expression of β-actin mRNA and expressed as fold change relative to the control sample. Results represent the mean ± SD of three independent experiments, each performed in triplicate. **p < 0.01, ***p < 0.001 as determined by ANOVA.
Briefly, total proteins from the cells in each group were subjected to 12% denaturing sodium dodecyl sulfate-polyacrylamide gel electrophoresis (SDS-PAGE). The proteins were then transferred onto a poly(vinylidene fluoride) (PVDF) membrane (Millipore). […] After the membrane was fully washed, it was incubated with secondary antibodies at 37 °C for 45 min goat anti-rabbit IgG H&L (HRP) (ab97051), Abcam, MA. The membrane was washed with Tris-buffered saline/Tween-20 (TBST) 4 times at room temperature for 14 min each time. Next, the samples were exposed and imaged (Sigma-Aldrich Chemical) using the enhanced chemiluminescence (ECL) method (Pierce Biotechnology).

SMILES	% Luciferase Activity SW480 (residual) [1]	effect on HCC1937 cell growth (HCC1937 cells)	% Luciferase Activity HCT116 (residual) [2]	effect on HCC1806 cell growth (HCC1806 cells)	melting point	other results
COC(=O)c1ccc(NS(=O)(=O)c2ccc(Br)cc2)cc1 [Compound 1]	–	–	–	–	–	IC50, HCT116 colon cancer cell growth (HCT116 colon cancer cell): submicromolar
CCOC(=O)c1ccc(NS(=O)(=O)c2ccc(Br)cc2)cc1 [Compound 3, Ethyl 4-((4-bromophenyl)sulfonamido)benzoate, reference compound]	21.61%	mild efficacy	18.75%	mild efficacy	–	–
O=S(=O)(Nc1cccc(-c2ccco2)c1)c1ccc(Br)cc1 [Compound 5, 4-Bromo-N-(3-(furan-2-yl)phenyl)benzenesulfonamide]	4.80%	significant inhibition	5.88%	significant inhibition	147 to 150 °C	effect on MDA-MB-231 cell proliferation (MDA-MB-231 cells): significant antiproliferative effects
O=c1[nH]cc(F)c(=O)[nH]1 [Compound 5-FU, 5-fluorouracil, reference compound]	–	–	–	–	–	EC50 (SW620 cells): 103 µM
O=S(=O)(Nc1cccc(-c2ccccn2)c1)c1ccc(Br)cc1 [Compound 6, 4-Bromo-N-(3-(pyridin-2-yl)phenyl)benzenesulfonamide]	28.46%	significant inhibition	5.14%	significant inhibition	175 to 177 °C	effect on MDA-MB-231 cell proliferation (MDA-MB-231 cells): significant antiproliferative effects
O=S(=O)(Nc1cccc(-c2ccccn2)c1)c1ccc(Cl)cc1 [Compound 7, 4-Chloro-N-(3-(pyridin-2-yl)phenyl)benzenesulfonamide]	7.32%	–	0.37%	mild inhibitory effect	166 to 169 °C	–
O=S(=O)(Nc1ccc(-c2ccco2)cc1)c1ccc(Br)cc1 [Compound 8, 4-Bromo-N-(4-(furan-2-yl)phenyl)benzenesulfonamide]	1.82%	–	5.58%	mild inhibitory effect	163 to 166 °C	–
O=S(=O)(Nc1ccc(-c2ccccn2)cc1)c1ccc(Cl)cc1 [Compound 10, 4-Chloro-N-(4-(pyridin-2-yl)phenyl)benzenesulfonamide]	1.75%	–	4.56%	–	180 to 182 °C	association between β-catenin and Tcf-4 (co-immunoprecipitation) [3]: completely abrogated the association; IC50 (β-catenin): > 1 µM; mRNA levels of Wnt-target genes Fgf20 and Sal4 (Fgf20 and Sal4): strongly inhibited; inhibition of Myc expression (Myc; 10 μM): about 2.5 fold; protein and mRNA levels of Myc (Myc; 10–50–100 μM): significant dose-dependent inhibition; β-catenin protein levels (Myc; 10–50–100 μM): reduced only at the highest dose
O=C1[C@H](Cc2ccc(O)cc2)N2C(=O)CCN(C(=O)NCc3ccccc3)[C@H]2CN1Cc1cccc2ccccc12 [ICG-001, reference compound]	–	–	–	–	–	reduction of MDA-MB-231 cell viability (MDA-MB-231 cells; even at the low dose of 0.49 μM): most effective compound
